Assay results from ChEMBL document CHEMBL3885881, “DrugMatrix”.
Values joined by “and” are separate entries in the source; they are usually repeats but may differ in a detail not shown here. Identical values can stand only once.

Species on record: Rattus norvegicus
Test: DrugMatrix - Regimen: Daily Repeat
Type: toxicity, organism-based, Sprague-Dawley
Design: regimen Daily Repeat, gender Male, age 6-8 weeks
Details: in vivo, po, route oral GAVAGE, vehicle .5 % CMC; for ABSOLUTE BASOPHIL / ABSOLUTE EOSINOPHIL / ABSOLUTE LYMPHOCYTE / ABSOLUTE MONOCYTE / BASOPHIL / EOSINOPHIL / ERYTHROCYTE COUNT / HEMATOCRIT / HEMOGLOBIN / LEUKOCYTE COUNT / LYMPHOCYTE / MEAN CORPUSCULAR HEMOGLOBIN / MEAN CORPUSCULAR HEMOGLOBIN CONCENTRATION / MEAN CORPUSCULAR VOLUME / MONOCYTE / NEUTROPHIL / PLATELET COUNT / ABSOLUTE SEGMENTED NEUTROPHIL / NUCLEATED RED BLOOD CELLS: tissue Blood; for ALANINE AMINOTRANSFERASE / ALBUMIN / ALKALINE PHOSPHATASE / ASPARTATE AMINOTRANSFERASE / BLOOD UREA NITROGEN / CARBON DIOXIDE / CHLORIDE / CHOLESTEROL / CREATINE PHOSPHOKINASE / CREATININE / GLUCOSE / LACTATE DEHYDROGENASE / LIPASE / PHOSPHORUS / POTASSIUM / SODIUM / TOTAL BILIRUBIN / TOTAL PROTEIN / URIC ACID: tissue Plasma
[1] = 0 mg/kg, 120 h, dose level Control, time 5 day
[2] = 0 mg/kg, […], dose level Control, time 14 day
[3] = 10 mg/kg, 72 h, dose level Low, time 3 day
[4] = 10 mg/kg, 120 h, dose level Low, time 5 day

Compound `CN(C)CCN(Cc1cccs1)c1ccccn1` has an ABSOLUTE BASOPHIL [1] of 150 cells/µL, an ABSOLUTE EOSINOPHIL [1] of 110 cells/µL and an ABSOLUTE LYMPHOCYTE [1] of 13400 cells/µL. It also gave an ABSOLUTE MONOCYTE [1] of 330 cells/µL, a BASOPHIL [1] of 0.78% and an EOSINOPHIL [1] of 0.62%. The “ERYTHROCYTE COUNT” value [1] was 7.12 x10E6/uL, the HEMATOCRIT [1] was 46.95% and the HEMOGLOBIN [1] was 14.55 G/DL. For the same compound, the “LEUKOCYTE COUNT” value [1] was 16.58 x10E3/uL, the LYMPHOCYTE [1] was 80.95% and the “MEAN CORPUSCULAR HEMOGLOBIN” value [1] was 20.45 pg. The “MEAN CORPUSCULAR HEMOGLOBIN CONCENTRATION” value [1] was 31.02 G/DL, the “MEAN CORPUSCULAR VOLUME” value [1] was 65.97 fL and the MONOCYTE [1] was 1.97%. For the same compound, the NEUTROPHIL [1] was 14.12%, the “PLATELET COUNT” value [1] was 1229.25 x10E3/uL and the “ALANINE AMINOTRANSFERASE” value [1] was 45 u/L. For the same compound, the ALBUMIN [1] was 3.8 G/DL, the “ALKALINE PHOSPHATASE” value [1] was 388 u/L and the “ASPARTATE AMINOTRANSFERASE” value [1] was 72.25 u/L. The “BLOOD UREA NITROGEN” value [1] was 15.75 mg/dL, the “CARBON DIOXIDE” value [1] was 37 mmol/L and the CHLORIDE [1] was 107 MEQ/L. For the same compound, the CHOLESTEROL [1] was 73 mg/dL, the “CREATINE PHOSPHOKINASE” value [1] was 525.5 u/L and the CREATININE [1] was 0.5 mg/dL. For the same compound, the GLUCOSE [1] was 179.5 mg/dL, the “LACTATE DEHYDROGENASE” value [1] was 216.25 u/L and the LIPASE [1] was 22.5 u/L. For the same compound, the PHOSPHORUS [1] was 11.97 mg/dL, the POTASSIUM [1] was 6.4 MEQ/L and the SODIUM [1] was 151.25 MEQ/L. The “TOTAL BILIRUBIN” value [1] was 0.3 mg/dL, the “TOTAL PROTEIN” value [1] was 6.55 G/DL and the “URIC ACID” value [1] was 1.35 mg/dL. For the same compound, the ABSOLUTE BASOPHIL [2] was 120 cells/µL, the ABSOLUTE EOSINOPHIL [2] was 40 cells/µL and the ABSOLUTE LYMPHOCYTE [2] was 10100 cells/µL. It also gave an ABSOLUTE MONOCYTE [2] of 190 cells/µL, a BASOPHIL [2] of 1.1% and an EOSINOPHIL [2] of 0.33%. For the same compound, the “ERYTHROCYTE COUNT” value [2] was 7.86 x10E6/uL, the HEMATOCRIT [2] was 48.5% and the HEMOGLOBIN [2] was 15.4 G/DL. For the same compound, the “LEUKOCYTE COUNT” value [2] was 11.73 x10E3/uL, the LYMPHOCYTE [2] was 85.92% and the “MEAN CORPUSCULAR HEMOGLOBIN” value [2] was 19.55 pg. For the same compound, the “MEAN CORPUSCULAR HEMOGLOBIN CONCENTRATION” value [2] was 31.72 G/DL, the “MEAN CORPUSCULAR VOLUME” value [2] was 61.67 fL and the MONOCYTE [2] was 1.6%. For the same compound, the NEUTROPHIL [2] was 10.2%, the “PLATELET COUNT” value [2] was 1212.75 x10E3/uL and the “ALANINE AMINOTRANSFERASE” value [2] was 47 u/L. The ALBUMIN [2] was 3.85 G/DL, the “ALKALINE PHOSPHATASE” value [2] was 356.5 u/L and the “ASPARTATE AMINOTRANSFERASE” value [2] was 87.75 u/L. The “BLOOD UREA NITROGEN” value [2] was 14.25 mg/dL, the “CARBON DIOXIDE” value [2] was 36.5 mmol/L and the CHLORIDE [2] was 106.5 MEQ/L. The CHOLESTEROL [2] was 63.25 mg/dL, the “CREATINE PHOSPHOKINASE” value [2] was 324.5 u/L and the CREATININE [2] was 0.65 mg/dL. The GLUCOSE [2] was 162.75 mg/dL, the “LACTATE DEHYDROGENASE” value [2] was 299 u/L and the LIPASE [2] was 16.75 u/L. The PHOSPHORUS [2] was 10.45 mg/dL, the POTASSIUM [2] was 6.6 MEQ/L and the SODIUM [2] was 152 MEQ/L. For the same compound, the “TOTAL BILIRUBIN” value [2] was 0.25 mg/dL, the “TOTAL PROTEIN” value [2] was 6.7 G/DL and the “URIC ACID” value [2] was 1.15 mg/dL. For the same compound, the “ABSOLUTE BASOPHIL” value [3] was 0 CELLS/uL, the “ABSOLUTE EOSINOPHIL” value [3] was 27 CELLS/uL and the “ABSOLUTE LYMPHOCYTE” value [3] was 9772.67 CELLS/uL. The “ABSOLUTE MONOCYTE” value [3] was 248.67 CELLS/uL, the “ABSOLUTE SEGMENTED NEUTROPHIL” value [3] was 751.67 CELLS/uL and the BASOPHIL [3] was 0%. The EOSINOPHIL [3] was 0.33%, the “ERYTHROCYTE COUNT” value [3] was 4.84 x10E6/uL and the HEMATOCRIT [3] was 31.57%. For the same compound, the HEMOGLOBIN [3] was 12.13 G/DL, the “LEUKOCYTE COUNT” value [3] was 10.8 x10E3/uL and the LYMPHOCYTE [3] was 90.33%. The “MEAN CORPUSCULAR HEMOGLOBIN” value [3] was 25.1 pg, the “MEAN CORPUSCULAR HEMOGLOBIN CONCENTRATION” value [3] was 38.43 G/DL and the “MEAN CORPUSCULAR VOLUME” value [3] was 65.27 fL. The MONOCYTE [3] was 2.33%, the NEUTROPHIL [3] was 7% and the “NUCLEATED RED BLOOD CELLS” value [3] was 0 /100WBC. The “PLATELET COUNT” value [3] was 1127 x10E3/uL, the “ALANINE AMINOTRANSFERASE” value [3] was 57.33 u/L and the ALBUMIN [3] was 3.9 G/DL. The “ALKALINE PHOSPHATASE” value [3] was 413.67 u/L, the “ASPARTATE AMINOTRANSFERASE” value [3] was 90.67 u/L and the “BLOOD UREA NITROGEN” value [3] was 16 mg/dL. The “CARBON DIOXIDE” value [3] was 30.33 mmol/L, the CHLORIDE [3] was 98.33 MEQ/L and the CHOLESTEROL [3] was 86 mg/dL. The “CREATINE PHOSPHOKINASE” value [3] was 368 u/L, the CREATININE [3] was 0.25 mg/dL and the GLUCOSE [3] was 147.33 mg/dL. The “LACTATE DEHYDROGENASE” value [3] was 103 u/L, the LIPASE [3] was 10.67 u/L and the PHOSPHORUS [3] was 10.53 mg/dL. The POTASSIUM [3] was 5.88 MEQ/L, the SODIUM [3] was 141.1 MEQ/L and the “TOTAL BILIRUBIN” value [3] was 0.23 mg/dL. The “TOTAL PROTEIN” value [3] was 6.23 G/DL, the “URIC ACID” value [3] was 0.43 mg/dL and the “ABSOLUTE SEGMENTED NEUTROPHIL” value [4] was 1373 CELLS/uL. The BASOPHIL [4] was 0.85% and 0%, the EOSINOPHIL [4] was 0.43% and 0.33% and the “ERYTHROCYTE COUNT” value [4] was 6.77 x10E6/uL and 5.32 x10E6/uL. For the same compound, the HEMATOCRIT [4] was 44.08% and 33.07%, the HEMOGLOBIN [4] was 13.62 G/DL and 12.93 G/DL and the “LEUKOCYTE COUNT” value [4] was 14.73 x10E3/uL and 11.23 x10E3/uL. The LYMPHOCYTE [4] was 80.67% and 87%, the “MEAN CORPUSCULAR HEMOGLOBIN” value [4] was 20.1 pg and 24.37 pg and the “MEAN CORPUSCULAR HEMOGLOBIN CONCENTRATION” value [4] was 30.93 G/DL and 39.13 G/DL. For the same compound, the “MEAN CORPUSCULAR VOLUME” value [4] was 65 fL and 62.23 fL, the MONOCYTE [4] was 2.75% and 0.33% and the NEUTROPHIL [4] was 13.88% and 12.33%. The “NUCLEATED RED BLOOD CELLS” value [4] was 0 /100WBC, the “PLATELET COUNT” value [4] was 1086.75 x10E3/uL and 1423 x10E3/uL and the “ALANINE AMINOTRANSFERASE” value [4] was 52.75 u/L and 43 u/L. For the same compound, the ALBUMIN [4] was 3.67 G/DL and 4 G/DL, the “ALKALINE PHOSPHATASE” value [4] was 395.75 u/L and 410 u/L and the “ASPARTATE AMINOTRANSFERASE” value [4] was 91 u/L and 82.67 u/L. For the same compound, the “BLOOD UREA NITROGEN” value [4] was 13.75 mg/dL and 14.67 mg/dL, the “CARBON DIOXIDE” value [4] was 36.75 mmol/L and 34.67 mmol/L and the CHLORIDE [4] was 105.75 MEQ/L and 99.33 MEQ/L. The CHOLESTEROL [4] was 84.75 mg/dL and 72 mg/dL, the “CREATINE PHOSPHOKINASE” value [4] was 591 u/L and 571.33 u/L and the CREATININE [4] was 0.4 mg/dL and 0.23 mg/dL. The GLUCOSE [4] was 181.5 mg/dL and 137.33 mg/dL, the “LACTATE DEHYDROGENASE” value [4] was 125.75 u/L and 163.67 u/L and the LIPASE [4] was 18.5 u/L and 7.33 u/L. For the same compound, the PHOSPHORUS [4] was 11.68 mg/dL and 12.63 mg/dL, the POTASSIUM [4] was 6.62 MEQ/L and 6.41 MEQ/L and the SODIUM [4] was 151 MEQ/L and 143.33 MEQ/L. For the same compound, the “TOTAL BILIRUBIN” value [4] was 0.28 mg/dL and 0.13 mg/dL, the “TOTAL PROTEIN” value [4] was 6.15 G/DL and 6.1 G/DL and the “URIC ACID” value [4] was 1.28 mg/dL and 0.87 mg/dL.
